The source of these data is patent US9409884B2 (Rigel Pharmaceuticals, Inc., priority 2012, dated 2016).

The EC50 is the midpoint of the concentration-response curve. A low value points to an effect from little substance.

For the first test, the target named is AMPK. As to the kind of experiment: AMPK activation, enzyme-linked immunosorbent assay. Format: biochemical. The following applies: Table 8, compounds of Table 1. In a few lines:
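Read-out: ELISA, used to detect compound-driven activation of AMPK.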
Take `O=C(N[C@@H]1CCN(C(=O)c2ccncc2)C1)c1cc2cc(OC3CCN(c4ccc(C(F)(F)F)cc4)CC3)ccc2o1` [Compound 1-125, (R)-N-(1-isonicotinoylpyrrolidin-3-yl)-5-(1-(4-(trifluoromethyl)phenyl)piperidin-4-yloxy)benzofuran-2-carboxamide]: the EC50 lay within 1 to 5 µM.

In turn, `O=C(NC1CCN(Cc2cn(C(c3ccccc3)(c3ccccc3)c3ccccc3)cn2)CC1)c1ccc(OC2CCN(c3ccc(C(F)(F)F)cc3)CC2)cn1` [Compound 1-47, 5-(1-(4-(trifluoromethyl)phenyl)piperidin-4-yloxy)-N-(1-((1-trityl-1H-imidazol-4-yl)methyl)piperidin-4-yl)picolinamide] gave an EC50 of 1 to 5 µM.

Regarding `CC(C)(C)OC(=O)N1CCC(NS(=O)(=O)c2ccc(OC3CCN(c4ccc(C(F)(F)F)cc4)CC3)nc2)CC1` [Compound 1-54, tert-butyl 4-(6-(1-(4-(trifluoromethyl)phenyl)piperidin-4-yloxy)pyridine-3-sulfonamido) piperidine-1-carboxylate], the EC50 lay in the range of 1 to 5 µM.

Staying with this test, now noted: Table 9, compounds of Table 2.
`O=C(NC1CCN(S(=O)(=O)c2ccc(F)cc2)CC1)c1ccc2[nH]c3c(c2c1)CN(c1ccc(F)cc1)CC3` [Compound 2-35, 2-(4-fluorophenyl)-N-(1-(4-fluorophenylsulfonyl)piperidin-4-yl)-2,3,4,5-tetrahydro-1H-pyrido[4,3-b]indole-8-carboxamide]: the EC50 was in the range of 10 to 50 µM.

Take `CC(C)(C)OC(=O)N1CCC(NC(=O)c2ccc3[nH]c4c(c3c2)CN(Cc2ccc(C(N)=O)cc2)CC4)CC1` [Compound 2-43, tert-butyl 4-(2-(4-carbamoylbenzyl)-2,3,4,5-tetrahydro-1H-pyrido[4,3-b]indole-8-carboxamido)piperidine-1-carboxylate]: the EC50 was greater than 100 µM. On the same count and under the same terms, in the case of `NC(=O)c1ccc(CN2CCc3[nH]c4ccc(C(=O)NC5CCN(Cc6ccc(F)cc6)CC5)cc4c3C2)cc1` [Compound 2-48, 2-(4-carbamoylbenzyl)-N-(1-(4-fluorobenzyl)piperidin-4-yl)-2,3,4,5-tetrahydro-1H-pyrido[4,3-b]indole-8-carboxamide] it was greater than 100 µM. The molecule `N#Cc1ccc(CN2CCC(NC(=O)c3ccc4[nH]c5c(c4c3)CN(S(=O)(=O)c3cccnc3)CC5)CC2)cc1` [Compound 2-26, N-(1-(4-cyanobenzyl)piperidin-4-yl)-2-(pyridin-3-ylsulfonyl)-2,3,4,5-tetrahydro-1H-pyrido[4,3-b]indole-8-carboxamide] registered an EC50 of 10 to 50 µM.

Still in this test, the particulars now being: Table 10, compounds of Table 3.
In turn, `N#Cc1ccc(CN2CCC(NC(=O)c3ccc4c(c3)CN(Cc3ccc(C#N)cc3)CC4)CC2)cc1` [Compound 3-37, 2-(4-cyanobenzyl)-N-(1-(4-cyanobenzyl)piperidin-4-yl)-1,2,3,4-tetrahydroisoquinoline-7-carboxamide] showed an EC50 of less than 0.1 µM. The same measure, in the same setting: the value for `N#Cc1ccc(CN2CCc3ccc(C(=O)NC4CCN(Cc5ccc(C(F)(F)F)cc5)CC4)cc3C2)cc1` [Compound 3-39, 2-(4-cyanobenzyl)-N-(1-(4-(trifluoromethyl)benzyl)piperidin-4-yl)-1,2,3,4-tetrahydroisoquinoline-7-carboxamide] was 1 to 10 µM; that for `O=C(c1ccncc1)N1CC2CC1CN2C(=O)c1nc2ccc(OC3CCN(c4ccc(C(F)(F)F)cc4)CC3)cc2o1` (stereo not shown) [Compound 3-11, (5-isonicotinoyl-2,5-diazabicyclo[2.2.1]heptan-2-yl)(6-(1-(4-(trifluoromethyl)phenyl)piperidin-4-yloxy)benzo[d]oxazol-2-yl)methanone] was 0.1 to 1 µM; that for `N#Cc1ccc(CN2CC3CC2CN3C(=O)c2nc3ccc(OC4CCN(c5ccc(C(F)(F)F)cc5)CC4)cc3o2)cc1` (stereo not shown) [Compound 3-10, 4-((5-(6-(1-(4-(trifluoromethyl)phenyl)piperidin-4-yloxy)benzo[d]oxazole-2-carbonyl)-2,5-diazabicyclo[2.2.1]heptan-2-yl)methyl)benzonitrile] was 0.1 to 1 µM.

Still in this test, the particulars now being: Table 11, compounds of Table 4.
For `O=C(NC1CCN(Cc2ccc(C(F)(F)F)cc2)C1)c1ccc(C(=O)N2CCN(c3ccc(Cl)cc3)CC2)cn1` (stereo not shown) [Compound 4-8, 5-(4-(4-chlorophenyl)piperazine-1-carbonyl)-N-(1-(4-(trifluoromethyl)benzyl)pyrrolidin-3-yl)picolinamide], the EC50 was in the range of 1 to 5 µM. Still for that read-out and setting: in the case of `N#Cc1ccc(CN2CCC(NC(=O)c3ccc(C(=O)N4CCN(Cc5ccc(C(F)(F)F)cc5)CC4)cn3)CC2)cc1` [Compound 4-3, N-(1-(4-cyanobenzyl)piperidin-4-yl)-5-(4-(4-(trifluoromethyl)benzyl)piperazine-1-carbonyl)picolinamide] it was less than 0.5 µM.

The test is the same for the next values; noted with them: Table 12, compounds of Table 5.
For the molecule `O=C(NC1CCN(C(=O)c2ccncc2)CC1)c1ccc(OC2CCN(c3ccc(C(F)(F)F)cc3)CC2)c(F)c1` [Compound 5-40, 3-fluoro-N-(1-isonicotinoylpiperidin-4-yl)-4-(1-(4-(trifluoromethyl)phenyl)piperidin-4-yloxy)benzamide], the EC50 was less than 1 µM.

The molecule `O=C(NC1CCN(Cc2ccc(Cl)cc2)CC1)c1ccc(OC2CCN(Cc3ccc(Cl)c(Cl)c3)CC2)c(F)c1` [Compound 5-80, N-(1-(4-chlorobenzyl)piperidin-4-yl)-4-(1-(3,4-dichlorobenzyl)piperidin-4-yloxy)-3-fluorobenzamide] displayed an EC50 of less than 1 µM.

Staying with this test, now noted: Table 13, compounds of Table 6.
As to `N#Cc1ccc(CN2CCC(NC(=O)c3cc4cc(NC(=O)C5CCN(Cc6ccc(OC(F)(F)F)cc6)CC5)ccc4o3)CC2)cc1` [Compound 6-46, N-(2-(1-(4-cyanobenzyl)piperidin-4-ylcarbamoyl)benzofuran-5-yl)-1-(4-(trifluoromethoxy)benzyl) piperidine-4-carboxamide], the half-maximal effective concentration (EC50) was in the range of 0.1 to 1 µM.

For `O=C(NC1CCN(Cc2ccc(OC(F)(F)F)cc2)CC1)c1cc2cc(C(=O)N3CCC(Oc4ccc(S(=O)(=O)C(F)(F)F)cc4)CC3)ccc2o1` [Compound 6-136, N-(1-(4-(trifluoromethoxy)benzyl)piperidin-4-yl)-5-(4-(4-(trifluoromethylsulfonyl)phenoxy)piperidine-1-carbonyl)benzofuran-2-carboxamide], the 50% effective concentration (EC50) is less than 0.1 µM. With `O=C(Nc1ccc(Oc2ccc(F)cc2)nc1)c1cc2cc(CN3CCC(Oc4ccc(C(F)(F)F)cc4)CC3)ccc2o1` [Compound 6-29, N-(6-(4-fluorophenoxy)pyridin-3-yl)-5-((4-(4-(trifluoromethyl)phenoxy)piperidin-1-yl)methyl) benzofuran-2-carboxamide], the EC50 is less than 0.1 µM. On the same count and under the same terms, in the case of `COc1ccc(CN2CCC(NC(=O)c3cc4cc(C(=O)N5CCC(Oc6ccc(S(C)(=O)=O)cc6)CC5)ccc4o3)CC2)cc1` [Compound 6-164, N-(1-(4-methoxybenzyl)piperidin-4-yl)-5-(4-(4-(methylsulfonyl)phenoxy)piperidine-1-carbonyl) benzofuran-2-carboxamide] it was less than 0.1 µM; in that of `COc1ccc(CN2CCC(NC(=O)c3cc4cc(NC(=O)C5CCN(c6ccc(C#N)cc6)CC5)ccc4o3)CC2)cc1` [Compound 6-21, 1-(4-cyanophenyl)-N-(2-(1-(4-methoxybenzyl)piperidin-4-ylcarbamoyl)benzofuran-5-yl)piperidine-4-carboxamide], less than 0.1 µM; in that of `CS(=O)(=O)c1cccc(CN2CCN(C(=O)c3ccc4oc(C(=O)NC5CCN(Cc6ccc(C(F)(F)F)cc6)CC5)cc4c3)CC2)c1` [Compound 6-149, 5-(4-(3-(methylsulfonyl)benzyl)piperazine-1-carbonyl)-N-(1-(4-(trifluoromethyl)benzyl)piperidin-4-yl)benzofuran-2-carboxamide], less than 0.1 µM.

In the case of `COc1ccc(CN2CCC(NC(=O)c3cc4cc(C(=O)N5CCC(Oc6ccc(C(F)(F)F)cc6)CC5)ccc4o3)CC2)cc1` [Compound 6-25, N-(1-(4-methoxybenzyl)piperidin-4-yl)-5-(4-(4-(trifluoromethyl)phenoxy)piperidine-1-carbonyl) benzofuran-2-carboxamide], the EC50 was less than 0.1 µM.

The test is the same for the next values; noted with them: Table 14, compounds of Table 7.
Turning to `Cc1nc2cc(OC3CCN(C(=O)c4ccc(C(=O)NC5CCN(Cc6ccc(OC(F)(F)F)cc6)C[C@H]5F)cn4)CC3)ccc2s1` (stereo partly drawn) [Compound 7-51, N-((3,4-trans)-3-fluoro-1-(4-(trifluoromethoxy)benzyl)piperidin-4-yl)-6-(4-(2-methylbenzo[d]thiazol-5-yloxy)piperidine-1-carbonyl)nicotinamide], the EC50 was less than 1 µM. Still for that read-out and setting: the value for `Cc1nc2cc(OC3CCN(C(=O)c4ccc(C(=O)NC5CCN(Cc6ccc(OC(F)(F)F)cc6)CC5)cn4)CC3)ccc2s1` [Compound 7-23, 6-(4-(2-methylbenzo[d]thiazol-5-yloxy)piperidine-1-carbonyl)-N-(1-(4-(trifluoromethoxy)benzyl)piperidin-4-yl)nicotinamide] was less than 1 µM; that for `COc1ccc(C(=O)C2CCN(C(=O)c3ccc(C(=O)NC4CCN(Cc5cccc(OC)c5)C[C@H]4F)cn3)CC2)cc1` (stereo partly drawn) [Compound 7-30, N-((3,4-trans)-3-fluoro-1-(3-methoxybenzyl)piperidin-4-yl)-6-(4-(4-methoxybenzoyl)piperidine-1-carbonyl)nicotinamide] was less than 1 µM. Take `Cc1cc(OC2CCN(C(=O)c3ccc(C(=O)NC4CCN(Cc5ccc(OC(F)(F)F)cc5)C[C@H]4F)cn3)CC2)ccc1S(C)(=O)=O` (stereo partly drawn) [Compound 7-47, N-((3,4-trans)-3-fluoro-1-(4-(trifluoromethoxy)benzyl)piperidin-4-yl)-6-(4-(3-methyl-4-(methylsulfonyl)phenoxy)piperidine-1-carbonyl) nicotinamide]: the EC50 was less than 1 µM. Molecule `CS(=O)(=O)c1ccc(OC2CCN(C(=O)c3ccc(C(=O)NC4CCN(Cc5ccc(OC(F)(F)F)cc5)C[C@H]4F)cn3)CC2)cc1` (stereo partly drawn) [Compound 7-49, N-((3,4-trans)-3-fluoro-1-(4-(trifluoromethoxy)benzyl)piperidin-4-yl)-6-(4-(4-(methylsulfonyl)phenoxy)piperidine-1-carbonyl) nicotmamide] registered an EC50 of 1 to 10 µM.

As to `CC(=O)c1ccc(Oc2ccc(NC(=O)c3ccc(C(=O)N4CCN(Cc5ccc(S(=O)(=O)N6CCCC6)cc5)CC4)nc3)cn2)cc1` [Compound 7-83, N-(6-(4-acetylphenoxy)pyridin-3-yl)-6-(4-(4-(pyrrolidin-1-ylsulfonyl)benzyl)piperazine-1-carbonyl)nicotinamide], the EC50 was 1 to 10 µM.
